Experimental data as given in patent US20130197073A1, “HYPOCHOLESTEROLEMIC, ANTI-INFLAMMATORY AND ANTIEPILEPTIC NEUROPROTECTIVE COMPOUND” (NEURON BIOPHARMA, S.A., priority 2010, published 2013).

What was measured:
[1] = tested on: human neuroblastoma SK-N-MC cells; test: Protection against neuronal death induced by okadaic acid (inhibition of protein phosphatase-1), WST-1; assay type: cell-based; settings: NST0060 at 10 μM; 20 nM OA, 22 hours; significant with 4 and 10 μM
Protocol: (§1) The assay was performed on human neuroblastoma SK-N-MC cells in culture, maintained as described in section 2.1.
The inhibition caused by compound NST0060 with respect to cell death caused by treatment with okadaic acid (OA) which inhibits the activity of protein phosphatase-1 (PP1) was analyzed. OA is one of the most widely used drugs for studying the phosphorylation mechanism of the tau protein, involved in the pathogenesis and progression of AD. Inhibition of PP1 causes cytoskeleton alterations and mitochondrial damage. These cells, not exceeding 15 passages, were seeded on 96-well plates treated for adherent cells with a cell concentration of 5×10^4 cells/well; 3 wells of the plate were seeded for each assay condition.
(§2) After 24 hours of cell incubation (at 37° C. and 5% CO2), the cell treatments were performed with 100 μl of total volume for the following conditions: • Control: culture medium (medium) • Okadaic acid (OA): medium plus 20 nM OA, causing death of 50% of the cells. • OA plus NST0060: medium plus OA (20 nM) plus NST0060 at 1, 4, 10, 40 or 100 μM.
(§3) The cells were incubated (at 37° C. and 5% CO2) with these treatments for 22 hours, after which time WST-1 reagent (Roche) was added. The WST-1 test is based on the measurement of metabolic activity (method described in section 2.1).

[2] = tested on: human neuroblastoma SK-N-MC cells; test: Protection against neuronal death induced by tunicamycin (endoplasmic reticulum stress), WST-1; assay type: cell-based; settings: NST0060 at 4 μM; 24 μM tunicamycin, 22 hours; significant from 1 to 40 μM
Protocol: as §1
The inhibition caused by compound NST0060 with respect to cell death caused by treatment with tunicamycin generating endoplasmic reticulum stress was analyzed. Tunicamycin is an inhibitor of protein N-glycosylation, causing abnormal protein folding in the endoplasmic reticulum, therefore said proteins are accumulated and cause stress, resulting in cell death. These cells, not exceeding 15 passages, were seeded on 96-well plates treated for adherent cells with a cell concentration of 5×10^4 cells/well; 3 wells of the plate were seeded for each assay condition.
as §2, with “Tunicamycin (TM):” for “Okadaic acid (OA):”, “24 μM tunicamycin,” for “20 nM OA,”, “TM” for “OA”, “TM (24 μM)” for “OA (20 nM)”, “μM” for “μM.”
as §3

[3] = tested on: human hepatocarcinoma line HepG2; test: Intracellular total cholesterol levels in human hepatic cell line; assay type: cell-based; settings: HepG2, active form, 20 hours in the absence of FBS
Protocol: To that end an assay was conducted which had the purpose of determining if compound NST0060 in its active form was capable of modifying total cholesterol levels in the human hepatocarcinoma line HepG2. […] To carry out this assay, the compounds were prepared at 10 mM in ultrapure water and were activated by means of 0.1 N NaOH for 12 hours at 4° C. The compounds were stored at −20° C. until they were used.
The HepG2 line was obtained from the American Type Culture Collection (ATCC). The cells maintained in passage were seeded in 96-well plates (4×10^4 cells/well) in MEM supplemented with 10% FBS, 2 mM L-glutamine, 1 mM sodium pyruvate, 0.1 mM non-essential amino acids and 0.05 mg/mL gentamicin. After 24 hours of the seeding, the cells were deprived of FBS for 8 hours. The cells were then incubated with the treatments at various concentrations for 20 hours. After the incubation period, the cells were washed with PBS and lysed with a phosphate buffer with 0.5% Triton X-100. The lysis was completed by means of a double freezing-thawing.
The total cholesterol was quantified by means of enzymatic and fluorometric techniques. […] The fluorescence intensity was determined at 530 nm of excitation and 580 nm of emission by means of a fluorometer. The results were standardized by amount of protein, which was determined by means of the BCA technique.

[4] = tested on: FVB/NHan mice; test: Death caused by acute administration of kainate in mice, survival; assay type: in vivo; settings: 50 mg/kg i.p. at 24 and 0.5 hours before KA 25 mg/kg and daily up to 7 days; p<0.05
Protocol: All the animals included during the experimental process were 12-week old males from the FVB/NHan strain. The experiments were carried out strictly complying with the standard entitled Guidance on the Operation of Animals (Scientific Procedures, Act. 1986). The animals were subjected to their respective quarantine period and were treated with maximum precaution to minimize possible contaminations during inoculations and handling.
The animals were intraperitoneally inoculated with 25 mg/kg of kainate (KA) dissolved in PBS. Fourteen animals were pretreated at 24 and 0.5 hours before inoculation with KA and subsequently on a daily basis up to 7 days post-inoculation by means of intraperitoneal injection with 0.25% methyl cellulose in PBS as a vehicle (vehicle+KA administration regimen) and 14 were pretreated at 24 and 0.5 hours before inoculation with KA and subsequently on a daily basis up to 7 days post-inoculation by means of intraperitoneal injection with compound NST0060 at a dose of 50 mg/kg (NST0060+KA administration regimen). After inoculation, the animals were individually housed in trays to monitor them.

[5] = PAMPA, 18 h, 100 μM, pH 7.4
Excerpt: To that end, the BBB was mimicked in an in vitro system that allowed evaluating the compound without using cells, and where the so-called PAMPA (Parallel Artificial Membrane Permeation Assay) was used, using a sandwich system considering the crossing of compounds by means of passive diffusion.
A mixture of marketed lipids derived from pig brain with a phospholipid composition very similar to that which forms the barrier and known as PBL (Porcine Polar Brain Lipid) was used to mimic the blood-brain barrier. This compound was stored at −20° C. dissolved in dodecane at 100 μg/ml in glass vials.
To that end, a 1/100 dilution of the compounds was performed, being the DMSO content in all cases 1%.
Five microliters of PBL at 20 μg/ml prepared from the frozen stock at 100 μg/mL were added in a 96-well filter plate, with a PVDF membrane and a pore size of 45 μm (MAIPN4550, Millipore). After 2 minutes, 300 μl of the phosphate buffer used to dilute the compounds were added. […] After that time, 100 μl from the wells of the donor plates and acceptor plates were transferred to a special 96-well plate for UV reading. […] The percentage of barrier crossing as well as the effective permeability (Pe) were calculated from the spectrophotometric data. […]
[Drug]acceptor=Absorbance of the acceptor well
[Drug]equilibrium=Absorbance of the mean of the basal wells/2 […]

[6] = tested on: zebrafish (Danio rerio, AB strain) embryos; test: Zebrafish embryo acute toxicity, percentage of healthy larvae; settings: mean±SD

## CCCC(CCC)C(=O)O[C@H]1C[C@@H](C)C=C2C=C[C@H](C)[C@H](CC[C@@H]3C[C@@H](O)CC(=O)O3)[C@H]21 [NST0060, 2-propylpentanoic acid (1S,3R,7S,8S,8aR)-1,2,3,7,8,8a-hexahydro-3,7-dimethyl-8-[2-[(2R,4R)-tetrahydro-4-hydroxy-6-oxo-2H-pyran-2-yl]ethyl]-1-naphthalenyl ester]
[1]
  protection against cell death caused by OA: 83%
[2]
  protection against cell death caused by TM: 42%
[3]
  reduction in total cholesterol in the cells: reductions in total cholesterol in the cells similar to those exerted by simvastatin
[4]
  mortality caused by KA: reduces mortality observed in a statistically significant manner
[5]
  % BBB crossing: 29.8 ± 2.4%
[6]; dose of 1 mg/Kg
  percentage of healthy larvae: 100±0.0%
[6]; dose of 3 mg/Kg
  percentage of healthy larvae: 86.7±6.2%
